Assay results published in patent publication US4680382A, “Analogues of actinomycin D” (priority 1986, dated 1987).
“And” between values parts separate entries of the source, which are not always exact repeats. Equal entries are not always repeated. *1 amine or outer side, *2 acyl side, *3 side chain or, on linkers, in order; H or OH if unused. Where a SMILES comes first, the peptide text is derived from it. Bridges are numbered along the chain shown (N, C = ends). Roman numbers before positions name the chains, in order. [ ]: non-standard residue; d: D form. Actinocin(9to1) = Cc1c2oc3c(C)ccc(C(=O)[*:1])c3nc-2c(C(=O)[*:2])c(N)c1=O; NMeV = CN[C@H](C(=O)O)C(C)C; Sar = CNCC(=O)O

How the values were obtained:
[1] = system: DNA; test: Thermal denaturation of DNA (ΔTm); format: binding
Procedure: The "reverse" analogues bind to calf-thymus DNA, but the spectrophotometrically determined binding (Kapp and Bapp, equilibrium binding values) constants are found to be lower than those of AMD. The binding is also measured by thermal denaturation of DNA.
The equilibrium binding constants (Kapp and Bapp) of the "reverse" methyl 7a and the "reverse" phenyl 8a were determined from the Scatchard plots of binding isotherms; the Scatchard plots are produced according to the previously described methods using calf-thymus DNA [Sengupta et al, Biochem. Biophys. Acta 521, 89 (1978)]. The Kapp values are 2.5×10^6 and 2.3×10^6 M^-1, respectively; corresponding Bapp values are 0.038 and 0.036. […] But, these "reverse" analogues associate with DNA less strongly; their frequency of binding is also lower compared to that of AMD. However, the "reverse" analogues fail to cause any measurable change in the ratio of the intrinsic viscosity (γ) of DNA with the increasing ratios of [ligand]/DNA base pair (r), even when low molecular weight DNAs (0.5×10^5 to 1.0×10^5) were employed.
(§1) Melting points are determined on a Thomas-Hoover melting point apparatus at a heating rate of 2° C./min. Thin-layer chromatography was performed on silica gel plates (Brinkmann Instrument Inc.). Solvent systems were (A) EtOAc-acetone (4:1), (B) CHCl3 -MeOH (9:1) and (C) Cifferri, the organic phase of the mixture EtOAc-MeOH-H2 O (20:1:20). High-performance liquid chromatography was carried out on a Varian Model 5020 gradient liquid chromatograph equipped with a CD-111L chromatography data system and fitted with a Varian reversed-phase C18 column with the following solvent systems: I, CH3 CN-5 mM NH4 OAc buffer, pH 6.4 (68:32 isocratic), flow rate 1.5 mL/min; II, 65-95% water-methanol gradient for 70 min, 1 mL/min; III, 10-90% H2 O-MeOH gradient for 120 min, 1 mL/min, with UV-visible variable- and fixed-wavelength dual detectors at 254, 440, 470 and 520 nm. IR spectra were obtained on a Perkin-Elmer Model 237 Infra Cord with KBr micropellets or in chloroform solutions. UV-visible spectra were obtained on a Gilford 250 spectrophorometer, which, with the addition of a base-line reference compensator (Analog Multiplexer 5053) and thermoprogrammer, auto four cell programmer and thermoelectric cell holder 2577, were used to obtain thermal denaturation curves. Specific rotation values were determined in chloroform solutions with a Cary 60 spectropolarimeter. NMR spectra were obtained in a JEOL FQ-90 MHz spectrometer equipped with Fourier transform. EPR spectra analyses were recorded in a Varian E-9 EPR spectrometer. All elemental analyses were within ±0.4%.

[2] = system: P388 cells; test: Inhibition of RNA synthesis (2-[14C]uridine incorporation) in P388 cells; format: cell-based, murine; settings: for IC50: 50% reduction in 1 hr of 2-[14C]uridine incorporation, read-out: IC50 RNA synth; for IC50 DNA/IC50 RNA: ratio
Procedure: (§2) Experiments for inhibition of nucleic acid synthesis in tumor cells in vitro were carried out with P388 tumor cells, details of which were reported by Sengupta et al, J. Med. Chem., 18, 1175 (1975). […] AMD-OZLs inhibit either process with equal activity and with the potency of its metabolite 7-hydroxy-AMD.
^b IC50 (RNA) = concentration of inhibitor in μM required to
cause 50% reduction (in 1 hr) in 2[^14 C]uridine incorporation into
acid precipitable material with use of P388 cells.

[3] = system: P388 cells; test: Inhibition of DNA synthesis (methyl-[3H]thymidine incorporation) in P388 cells; format: cell-based, murine; settings: 50% reduction in 1 hr of methyl-[3H]thymidine incorporation, read-out: IC50 DNA synth
Procedure: as §2
^c IC50 (DNA) = concentration of inhibitor in μM required to
cause 50% reduction (in 1 hr) in methyl[^3 H]thymidine incorporation
into acid precipitable material with use of P388 cells.

[4] = system: liver microsomes; test: EPR detection of free-radical intermediates with liver microsomes and NADPH (anaerobic); format: biochemical; settings: NADPH, potassium phosphate buffer
Procedure: No free-radical intermediates were detected in the absence of enzyme or substrates.
as §1

[5] = system: B16 melanoma; test: In vivo antitumor activity against B16 melanoma; parameters: species or system BDF1 mice; settings: for % ILS / surv (survivors on day 65/total injected) / MST (range): at optimal dose; for MST (range): control 29 (20-48); for optimal dose: ip, days 1, 5, 9
Procedure: AMD-OZL analogues 9a and 10a were about as active as AMD and 7-hydroxy-AMD. The potencies of these analogues are reduced in comparison to that of AMD; their optimal doses were higher than that of AMD.
^a 0.2 mL of 1:5 (weight/volume) brei of B16 melanoma implanted
ip on day 0 in groups of nine BDF1 mice. Drugs administered ip.
^b MST (range) median survival time in days (range of individual
^c % ILS (surv), percent increase in lifespan (survivors on day

[6] = target: T1, NADPH cytochrome P-450 reductase (rat liver microsomes) (Rattus norvegicus, UniProt P00388); test: Stimulation of NADPH oxidation in rat hepatic microsomal incubations; settings: for NADPH oxid: 340 nm, 37° C., phenobarbital induced microsomes, mean ± standard error of triplicate, basal 9.11 ± 0.30; for percentage stimulation of NADPH oxidation over basal rate: (drug-stimulated rate - basal rate)/basal rate × 100
T1 sequence (P00388 1-678): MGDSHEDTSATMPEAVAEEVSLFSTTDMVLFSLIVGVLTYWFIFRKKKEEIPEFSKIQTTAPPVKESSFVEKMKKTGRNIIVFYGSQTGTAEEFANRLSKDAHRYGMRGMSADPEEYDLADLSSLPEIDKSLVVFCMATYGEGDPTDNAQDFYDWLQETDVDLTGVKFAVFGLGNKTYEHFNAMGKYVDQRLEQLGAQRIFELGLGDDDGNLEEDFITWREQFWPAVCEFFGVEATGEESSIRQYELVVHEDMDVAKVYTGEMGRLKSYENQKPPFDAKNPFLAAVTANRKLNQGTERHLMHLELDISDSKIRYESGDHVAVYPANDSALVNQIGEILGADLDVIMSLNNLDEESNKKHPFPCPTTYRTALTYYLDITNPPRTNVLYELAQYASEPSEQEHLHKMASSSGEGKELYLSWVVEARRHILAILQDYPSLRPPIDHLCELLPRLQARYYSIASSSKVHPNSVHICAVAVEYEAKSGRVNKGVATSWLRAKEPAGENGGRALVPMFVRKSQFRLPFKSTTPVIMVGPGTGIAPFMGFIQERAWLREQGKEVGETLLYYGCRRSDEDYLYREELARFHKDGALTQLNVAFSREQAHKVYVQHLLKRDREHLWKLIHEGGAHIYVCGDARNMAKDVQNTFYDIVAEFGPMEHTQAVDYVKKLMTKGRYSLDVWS

Row | SMILES | ΔTm (DNA melting temperature) [1] | IC50 [2] | IC50 DNA/IC50 RNA [2] | IC50 [3] | free-radical intermediate detected by EPR [4] | % ILS [5] | surv (survivors on day 65/total injected) [5] | MST (range) [5] | optimal dose [5] | NADPH oxid [6] | percentage stimulation of NADPH oxidation over basal rate [6]
1 | Cc1c2oc3c(C)c(O)c(N)c(C(=O)NC4C(=O)NC(C(C)C)C(=O)N5CCCC5C(=O)N(C)CC(=O)N(C)C(C(C)C)C(=O)OC4C)c3nc-2c(C(=O)NC2C(=O)NC(C(C)C)C(=O)N3CCCC3C(=O)N(C)CC(=O)N(C)C(C(C)C)C(=O)OC2C)c(N)c1=O (stereo not drawn) [4a, 7-Hydroxy-8-amino-actinomycin D] | 7.9±0.2 °C | 1150 nM | 0.97 | 1110 nM | Free-radical intermediates were also detected | 96% | 4/9 | 57 (33-61) days | 300 μg/kg per inj | 64.3 ± 2.11 nmol min^-1 (mg of protein)^-1 | 606%
2 | Cc1nc2c(C(=O)NC3C(=O)NC(C(C)C)C(=O)N4CCCC4C(=O)N(C)CC(=O)N(C)C(C(C)C)C(=O)OC3C)c3nc4c(C(=O)NC5C(=O)NC(C(C)C)C(=O)N6CCCC6C(=O)N(C)CC(=O)N(C)C(C(C)C)C(=O)OC5C)c(N)c(=O)c(C)c-4oc3c(C)c2o1 [7a, 7-Amino-2,9,11-trimethyl-8H-8-oxooxazolo [4,5-b]phenoxazine 4,6-bis[carbonyl-L-threonyl-D-valyl-L-prolylsarcosyl-L-N-methylvaline-(threonine hydroxyl)] lactone] | 5.5±0.3 °C | 90 nM | 11.22 | 1010 nM | Free-radical intermediates were also detected | 90% | 3/9 | 55 (33-57) days | 300 μg/kg per inj | 21.3 ± 1.93 nmol min^-1 (mg of protein)^-1 | 134%
3 | Cc1nc2c(C(=O)NC3C(=O)NC(C(C)C)C(=O)N4CCCC4C(=O)N(C)CC(=O)N(C)C(C(C)C)C(=O)OC3C)c3nc4c(C(=O)NC5C(=O)NC(C(C)C)C(=O)N6CCCC6C(=O)N(C)CC(=O)N(C)C(C(C)C)C(=O)OC5C)cc(=O)c(C)c-4oc3c(C)c2o1 (stereo not drawn) [9a] |  |  |  |  |  | 55% | 1/9 | 45 (32-55) days | 750 μg/kg per inj | 19.1 ± 1.70 nmol min^-1 (mg of protein)^-1 | 110%
4 | Cc1c2oc3c(C)ccc(C(=O)N[C@@H]4C(=O)N[C@H](C(C)C)C(=O)N5CCC[C@H]5C(=O)N(C)CC(=O)N(C)[C@@H](C(C)C)C(=O)O[C@@H]4C)c3nc-2c(C(=O)N[C@@H]2C(=O)N[C@H](C(C)C)C(=O)N3CCC[C@H]3C(=O)N(C)CC(=O)N(C)[C@@H](C(C)C)C(=O)O[C@@H]2C)c(N)c1=O [AMD, Actinomycin D] (I: T[dV]P[Sar][NMeV] / II: T[dV]P[Sar][NMeV]; ester I:1-I:C, II:1-II:C; linker I:N-II:N via Actinocin(9to1)) | 7.1±0.15 °C | 50 nM | 22 and 22.40 | 1120 nM | free-radical intermediate with broad resonance peaks was detected | 48% | 2/9 | 43 (36-54) days | 250 μg/kg per inj | 10.01 ± 0.90 nmol min^-1 (mg of protein)^-1 | 9.9%
